Measured values reported in publication PMC2717725 (Journal of medicinal chemistry, 2008).
Counter-ions that a name gives are not always drawn.

Tests used:
[1] = test system: GSK-3 -phosphorylated β-catenin; assay: β-catenin phosphorylation at GSK-3 sites in SH-SY5Y cells; type: cell-based, human; details: 6 h, 10 μM or dose-response, 2 μM MG132
[2] = test system: GSK-3α/β; assay: GSK-3α/β kinase assay; type: biochemical, porcine; details: for IC50: read-out: GSK3 IC50, GSK-3α/β, 15 μM ATP, from dose-response curves
[3] = target: CDK1/cyclin B; assay: CDK1/cyclin B kinase assay; type: biochemical, starfish (Marthasterias glacialis); details: read-out: CDK1 IC50, 15 μM ATP
[4] = test system: Rat-1 fibroblasts; assay: Luminescence assay of circadian rhythmicity, PPer2::Fluc reporter; type: cell-based; details: 10 μM, Rat-1 PPer2::Fluc, monitored 4 days
[5] = test system: Rat-1 fibroblasts; details: lithium 10-20 mM, mammalian cells; cited from earlier work
[6] = Equilibrium water solubility; type: physicochemical

IC50 [3] | SMILES | inhibition of β-catenin phosphorylation at GSK-3 specific sites [1] | further results
– | CN(C)CCO/N=C1/C(=C2/C(=O)Nc3cc(Br)ccc32)Nc2ccccc21 [Compound 5, (2′Z-3′E)-6-Bromoindirubin-3′-[O-(2-dimethylaminoethyl)-oxime]] | most efficient | –
– | CN1CCN(CCO/N=C2/C(=C3/C(=O)Nc4cc(Br)ccc43)Nc3ccccc32)CC1 [Compound 12, (2′Z-3′E)-6-Bromoindirubin-3′-{O-[2-(4-methyl-piperazin-1-yl)ethyl]oxime}] | most efficient | selectivity for GSK-3 versus 6BIO ([2]; GSK-3 over CDKs, compared to 6BIO): improved selectivity of one order of magnitude
1000 nM | COCCN1CCN(CCO/N=C2/C(=C3/C(=O)Nc4cc(Br)ccc43)Nc3ccccc32)CC1 [Compound 25, (2′Z-3E)-6-Bromoindirubin-3′-(O-{2-[4-(2-methoxyethyl)piperazin-1-yl]ethyl}oxime) Dihydrochloride] | – | –
– | CN(C)CCO/N=C1/C(=C2/C(=O)Nc3cc(Br)ccc32)Nc2ccccc21.Cl [Compound 16, (2′Z-3′E)-6-Bromoindirubin-3′-[O-(2-dimethylaminoethyl)oxime] Hydrochloride] | most efficient | –
900 nM | O=C1Nc2cc(Br)ccc2/C1=C1/Nc2ccccc2/C1=N\OCCN1CCN(CCOCCO)CC1 [Compound 15, (2′Z-3′E)-6-Bromoindirubin-3′-[O-(2-{4-[2-(2-hydroxyethoxy)-ethyl]piperazin-1-yl}ethyl)oxime]] | – | effect on circadian period length [4]: gradual shortening of the period length
– | CN1C(=O)C(=C2Nc3ccccc3C2=NO)c2ccc(Br)cc21 [1-methyl-6BIO, reference compound] | ineffective | –
– | CN1CCN(CCO/N=C2/C(=C3/C(=O)Nc4cc(Br)ccc43)Nc3ccccc32)CC1.Cl.Cl [Compound 23, (2′Z-3′E)-6-Bromoindirubin-3′-{O-[2-(4-methylpiperazin-1-yl)ethyl]oxime} Dihydrochloride] | most efficient | –
> 10000 nM | CCN(CC)C(=O)O/N=C1/C(=C2/C(=O)Nc3cc(Br)ccc32)Nc2ccccc21 [Compound 4, (2′Z-3′E)-6-Bromoindirubin-3′-[O-(N,N-diethylcarbamyl)-oxime]] | – | –
> 10000 nM | O=C1Nc2cc(Br)ccc2/C1=C1/Nc2ccccc2/C1=N\OCCBr [Compound 1, (2′Z-3′E)-6-Bromoindirubin-3′-[O-(2-bromoethyl)-oxime]] | – | –
500 nM | O=C1Nc2cc(Br)ccc2/C1=C1/Nc2ccccc2/C1=N\OCCN1CCCC1 [Compound 7, (2′Z-3′E)-6-Bromoindirubin-3′-[O-(2-pyrrolidin-1-ylethyl)oxime]] | – | –
– | [Li] [Lithium] | – | effect on circadian period [5]: lengthens the period
– | O=C1Nc2cc(Br)ccc2/C1=C1/Nc2ccccc2/C1=N\OCCN1CCN(CCO)CC1 [Compound 13, (2′Z-3′E)-6-Bromoindirubin-3′-(O-{2-[4-(2-hydroxyethyl)piperazin-1-yl]ethyl}oxime)] | most efficient | –
– | Cl.O=C1Nc2cc(Br)ccc2/C1=C1/Nc2ccccc2/C1=N\OCCN(CCO)CCO [Compound 20] | most efficient | –
> 10000 nM | O=C1Nc2cc(Br)ccc2/C1=C1/Nc2ccccc2/C1=N\OCCO [Compound 2, (2′Z-3′E)-6-Bromoindirubin-3′-[O-(2-hydroxyethyl)-oxime]] | – | IC50 [2]: 3 nM
150 nM | CN(CCON=C1C(=C2C(=O)Nc3cc(Br)ccc32)Nc2ccccc21)CC(O)CO.Cl (stereo not drawn) [Compound 21, (2Z-3′E)-6-Bromoindirubin-3′-(O-{2-[N-methyl, N-(2,3-dihydroxypropyl)amino]ethyl}oxime] Hydrochloride] | – | solubility ([6]; double distilled water): 1450 µg/mL; IC50 [2]: 23 nM
500 nM | O=C1Nc2cc(Br)ccc2/C1=C1/Nc2ccccc2/C1=N\OCCN1CCN(CCOCCO)CC1 [Compound 26, (2′Z-3′E)-6-Bromoindirubin-3′-[O-(2-{4-[2-(2-hydroxyethoxy)-ethyl]piperazin-1-yl}ethyl)oxime] Dihydrochloride] | – | –
– | O=C1Nc2cc(Br)ccc2/C1=C1/Nc2ccccc2/C1=N\OCCN1CCNCC1 [Compound 11, (2′Z-3′E)-6-Bromoindirubin-3′-[O-(2-piperazine-1-ylethyl)oxime]] | most efficient | –
– | Cl.Cl.O=C1Nc2cc(Br)ccc2/C1=C1/Nc2ccccc2/C1=N\OCCN1CCNCC1 [Compound 22, (2′Z-3′E)-6-Bromoindirubin-3′-[O-(2-piperazine-1-ylethyl)oxime] Dihydrochloride] | most efficient | –
– | O=C1Nc2cc(Br)ccc2/C1=C1/Nc2ccccc2/C1=N\OCCN(CCO)CCO [Compound 9] | most efficient | –
– | Cl.Cl.O=C1Nc2cc(Br)ccc2/C1=C1/Nc2ccccc2/C1=N\OCCN1CCN(CCO)CC1 [Compound 24, (2′Z-3E)-6-Bromoindirubin-3′-(O-{2-[4-(2-hydroxyethyl)piperazin-1-yl]ethyl}oxime) Dihydrochloride] | most efficient | –
450 nM | O=C1Nc2cc(Br)ccc2/C1=C1/Nc2ccccc2/C1=N\OCCN1CCCC1 [Compound 18, (2′Z-3′E)-6-Bromoindirubin-3′-[O-(2-pyrrolidin-1-ylethyl)oxime] Hydrochloride] | – | –
110 nM | O=C1Nc2cc(Br)ccc2/C1=C1/Nc2ccccc2/C1=N\OCC(O)CO (stereo not drawn) [Compound 3, (2′Z-3′E)-6-Bromoindirubin-3′-[O-(2,3-dihydroxypropyl)-oxime]] | most efficient | solubility change versus 6BIO (in words) ([6]; water): mediocre improvement of solubility; decrease of activity/affinity on GSK-3 compared to 6BIO ([2]; relative to 6BIO): 6 fold
